Consider 19 compounds from patent publication US12157746B2, “Tetrahydro-1H-pyrazino[2,1-a]isoindolylquinoline compounds for the treatment of autoimmune disease” (F. HOFFMANN-LA ROCHE AG, priority 2018, dated 2024).

For the assay, the target named is T1, human TLR8 (Homo sapiens, UniProt Q9NR97).
T1 sequence (Q9NR97 27-1041): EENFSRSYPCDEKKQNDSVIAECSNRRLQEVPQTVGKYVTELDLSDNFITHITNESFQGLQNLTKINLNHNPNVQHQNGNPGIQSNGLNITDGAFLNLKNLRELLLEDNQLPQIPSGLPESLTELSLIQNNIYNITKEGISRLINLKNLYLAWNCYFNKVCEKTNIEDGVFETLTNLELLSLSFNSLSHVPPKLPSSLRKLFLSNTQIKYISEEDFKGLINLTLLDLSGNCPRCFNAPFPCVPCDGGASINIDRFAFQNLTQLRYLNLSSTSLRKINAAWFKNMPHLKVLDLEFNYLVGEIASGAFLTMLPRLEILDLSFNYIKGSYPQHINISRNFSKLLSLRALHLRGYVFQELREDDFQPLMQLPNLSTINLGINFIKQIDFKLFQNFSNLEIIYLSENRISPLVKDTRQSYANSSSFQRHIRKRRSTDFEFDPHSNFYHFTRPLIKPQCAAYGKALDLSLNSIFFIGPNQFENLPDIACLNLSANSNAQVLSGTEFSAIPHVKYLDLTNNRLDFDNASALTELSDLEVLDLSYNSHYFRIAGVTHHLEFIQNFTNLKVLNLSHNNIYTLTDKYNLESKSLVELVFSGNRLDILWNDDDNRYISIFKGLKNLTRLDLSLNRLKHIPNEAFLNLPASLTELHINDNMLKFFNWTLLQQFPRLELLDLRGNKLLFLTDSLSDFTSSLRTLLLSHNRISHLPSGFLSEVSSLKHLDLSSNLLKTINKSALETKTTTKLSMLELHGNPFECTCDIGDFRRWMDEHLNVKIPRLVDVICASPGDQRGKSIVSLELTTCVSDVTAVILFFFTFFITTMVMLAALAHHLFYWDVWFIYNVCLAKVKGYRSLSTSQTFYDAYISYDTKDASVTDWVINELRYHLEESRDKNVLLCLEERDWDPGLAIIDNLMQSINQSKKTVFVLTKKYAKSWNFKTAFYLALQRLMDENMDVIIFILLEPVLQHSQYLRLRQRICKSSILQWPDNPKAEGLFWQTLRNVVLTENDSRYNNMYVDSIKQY
Description: HEK293-Blue-hTLR-8 cells assay. It counts as cell-based. As to conditions: HEK293-Blue-hTLR8 cells, R848 stimulation, 20 hrs, SEAP reporter; read-out: HEK/hTLR8 IC50. The source says: HEK293-Blue-hTLR-8 Cells Assay:
A stable HEK293-Blue-hTLR-8 cell line was purchased from InvivoGen (Cat. #: hkb-htlr8, San Diego, California, USA). These cells were originally designed for studying the stimulation of human TLR8 by monitoring the activation of NF-κB. A SEAP (secreted embryonic alkaline phosphatase) reporter gene was placed under the control of the IFN-β minimal promoter fused to five NF-κB and AP-1-binding sites. The SEAP was induced by activating NF-κB and AP-1 via stimulating HEK-Blue hTLR8 cells with TLR8 ligands. Therefore the reporter expression was declined by TLR8 antagonist under the stimulation of a ligand, such as R848, for incubation of 20 hrs. The cell culture supernatant SEAP reporter activity was determined using QUANTI-Blue™kit (Cat. #: rep-qb1, Invivogen, San Diego, Ca, USA) at a wavelength of 640 nm, a detection medium that turns purple or blue in the presence of alkaline phosphatase.
HEK293-Blue-hTLR8 cells were incubated at a density of 250,000-450,000 cells/mL in a volume of 170 μL in a 96-well plate in Dulbecco's Modified Eagle's medium (DMEM) containing 4.5 g/L glucose, 50 U/mL penicillin, […], […], 2 mM L-glutamine, 10% (v/v) heat-inactivated fetal bovine serum with addition of 20 μL test compound 1n a serial dilution in the presence of final DMSO at 1% and 10 μL of 60 uM R848 in above DMEM, perform incubation under 37° C. in a CO2 incubator for 20 hrs. Then 20 μL of the supernatant from each well was incubated with 180 μL Quanti-blue substrate solution at 37° C. for 2 hrs and the absorbance was read at 620-655 nm using a spectrophotometer. The signaling pathway that TLR8 activation leads to downstream NF-κB activation has been widely accepted, and therefore similar reporter assay was modified for evaluating TLR8 antagonist.

For `C[C@@H]1CN(c2ccc(C#N)c3ncccc23)C[C@@H]2c3ccc(OCCN(C)C)cc3CN12` [Example 25, 5-[(4R,10bS)-8-[2-(dimethylamino)ethoxy]-4-methyl-3,4,6,10b-tetrahydro-1H-pyrazino[2,1-a]isoindol-2-yl]quinoline-8-carbonitrile], the IC50 is less than 3.2 nM.
Take `C[C@@H]1CN(c2ccc(C#N)n3nccc23)C[C@@H]2c3ccc(N4CCNCC4)cc3CN12` [Example 5, 4-[(4R,10bS)-4-methyl-8-piperazin-1-yl-3,4,6,10b-tetrahydro-1H-pyrazino[2,1-a]isoindol-2-yl]pyrazolo[1,5-a]pyridine-7-carbonitrile]: the IC50 was less than 3.2 nM.
With `[2H]c1ccc2c(N3C[C@@H](C)N4Cc5cc(N6CC(C)(N)C6)ccc5[C@H]4C3)ccc(C#N)c2n1` [Example 92, 5-[(4R,10bS)-8-(3-amino-3-methyl-azetidin-1-yl)-4-methyl-3,4,6,10b-tetrahydro-1H-pyrazino[2,1-a]isoindol-2-yl]-2-deuterio-quinoline-8-carbonitrile], the IC50 was less than 0.3 nM.
As to `C[C@@H]1CN(c2ccc(C#N)c3ncccc23)C[C@@H]2c3ccc(N4C[C@@H](N)[C@@H](F)C4)cc3CN12` [Example 47, 5-[(4R,10bS)-8-[(3R,4S)-3-amino-4-fluoro-pyrrolidin-1-yl]-4-methyl-3,4,6,10b-tetrahydro-1H-pyrazino[2,1-a]isoindol-2-yl]quinoline-8-carbonitrile], the IC50 was determined as 0.6 nM.
Turning to `C[C@@H]1CN(c2ccc(C#N)c3ncccc23)C[C@@H]2c3ccc(N4C[C@@H](N)[C@H](F)C4)cc3CN12` [Example 48, 5-[(4R,10bS)-8-[(3R,4R)-3-amino-4-fluoro-pyrrolidin-1-yl]-4-methyl-3,4,6,10b-tetrahydro-1H-pyrazino[2,1-a]isoindol-2-yl]quinoline-8-carbonitrile], the IC50 was 0.7 nM.
Turning to `CO[C@@H]1CN(c2ccc3c(c2)CN2[C@H](C)CN(c4ccc(C#N)n5nccc45)C[C@H]32)CC[C@@H]1N` [Example 105, 4-[(4R,10bS)-8-[(3R,4S)-4-amino-3-methoxy-1-piperidyl]-4-methyl-3,4,6,10b-tetrahydro-1H-pyrazino[2,1-a]isoindol-2-yl]pyrazolo[1,5-a]pyridine-7-carbonitrile], the IC50 is 4.1 nM.
On to `CO[C@@H]1CN(c2ccc3c(c2)CN2[C@H](C)CN(c4ccc(C#N)n5nccc45)C[C@H]32)CC[C@H]1N` [Example 104, 4-[(4R,10bS)-8-[(3R,4R)-4-amino-3-methoxy-1-piperidyl]-4-methyl-3,4,6,10b-tetrahydro-1H-pyrazino[2,1-a]isoindol-2-yl]pyrazolo[1,5-a]pyridine-7-carbonitrile], for which the IC50 amounted to 3.2 nM.
Regarding `C[C@@H]1CN(c2ccc(C#N)c3ncccc23)C[C@@H]2c3ccc(N[C@@H]4CNC[C@@H]4F)cc3CN12` [Example 32, 5-[(4R,10bS)-8-[[(3R,4S)-4-fluoropyrrolidin-3-yl]amino]-4-methyl-3,4,6,10b-tetrahydro-1H-pyrazino[2,1-a]isoindol-2-yl]quinoline-8-carbonitrile], the IC50 is less than 3.2 nM.
`C[C@@H]1CN(c2ccc(C#N)c3ncccc23)C[C@@H]2c3ccc(N4CCOC[C@H](N)C4)cc3CN12` [Example 54A, 5-[(4R,10bS)-8-[(6R)-6-amino-1,4-oxazepan-4-yl]-4-methyl-3,4,6,10b-tetrahydro-1H-pyrazino[2,1-a]isoindol-2-yl]quinoline-8-carbonitrile]: the IC50 was less than 3.2 nM.
Turning to `C[C@@H]1CN(c2ccc(C#N)n3nccc23)C[C@@H]2c3ccc(N4C[C@@H](N)[C@H](O)C4)cc3CN12` [Example 110, 4-[(4R,10bS)-8-[(3R,4R)-3-amino-4-hydroxy-pyrrolidin-1-yl]-4-methyl-3,4,6,10b-tetrahydro-1H-pyrazino[2,1-a]isoindol-2-yl]pyrazolo[1,5-a]pyridine-7-carbonitrile], the IC50 is 5 nM.
As to `C[C@@H]1CN(c2ccc(C#N)n3ncc(F)c23)C[C@@H]2c3ccc(N4C[C@H](N)[C@@](C)(O)C4)cc3CN12` [Example 112, 4-[(4R,10bS)-8-[(3S,4S)-4-amino-3-hydroxy-3-methyl-pyrrolidin-1-yl]-4-methyl-3,4,6,10b-tetrahydro-1H-pyrazino[2,1-a]isoindol-2-yl]-3-fluoro-pyrazolo[1,5-a]pyridine-7-carbonitrile], the IC50 is 3.6 nM.
In the case of `C[C@@H]1CN(c2ccc(C#N)n3nccc23)C[C@@H]2c3ccc(N4C[C@H](N)[C@@H](O)C4)cc3CN12` [Example 111, 4-[(4R,10bS)-8-[(3S,4S)-3-amino-4-hydroxy-pyrrolidin-1-yl]-4-methyl-3,4,6,10b-tetrahydro-1H-pyrazino[2,1-a]isoindol-2-yl]pyrazolo[1,5-a]pyridine-7-carbonitrile] it was 2 nM; in that of `COC1CN(c2ccc3c(c2)CN2C3CN(c3ccc(C#N)c4ncccc34)C[C@H]2C)CC1N` (single isomer, unassigned) [Example 16B], less than 3.2 nM; in that of `C[C@@H]1CN(c2ccc(C#N)c3ncccc23)C[C@@H]2c3ccc(N4CCNCC(C)(O)C4)cc3CN12` (stereo partly drawn) [Example 55, 5-[(4R,10S)-8-(6-hydroxy-6-methyl-1,4-diazepan-1-yl)-4-methyl-3,4,6,10b-tetrahydro-1H-pyrazino[2,1-a]isoindol-2-yl]quinoline-8-carbonitrile], less than 3.2 nM.
The figure for `C[C@@H]1CN(c2ccc(C#N)c3nccnc23)C[C@@H]2c3ccc(N4CCNCC4)cc3CN12` [Example 7, 8-[(4R,10bS)-4-methyl-8-piperazin-1-yl-3,4,6,10b-tetrahydro-1H-pyrazino[2,1-a]isoindol-2-yl]quinoxaline-5-carbonitrile] is less than 3.2 nM.
For the compound `[2H]c1ccc2c(N3C[C@@H](C)N4Cc5cc(N6CC7CNCC(C6)O7)ccc5[C@H]4C3)ccc(C#N)c2n1` [Example 93, 5-[(4R,10bS)-4-methyl-8-(9-oxa-3,7-diazabicyclo[3.3.1]nonan-3-yl)-3,4,6,10b-tetrahydro-1H-pyrazino[2,1-a]isoindol-2-yl]-2-deuterio-quinoline-8-carbonitrile], the IC50 turned out to be 2.1 nM.
On to `C[C@@H]1CN(c2ccc(C#N)c3ncccc23)C[C@@H]2c3ccc(N4CCNC[C@@H](O)C4)cc3CN12` [Example 53B, 5-[(4R,10bS)-8-[(6R)-6-hydroxy-1,4-diazepan-1-yl]-4-methyl-3,4,6,10b-tetrahydro-1H-pyrazino[2,1-a]isoindol-2-yl]quinoline-8-carbonitrile], for which the IC50 was less than 3.2 nM.
In the case of `C[C@@H]1CN(c2ccc(C#N)c3ncccc23)C[C@@H]2c3ccc(N4CCOC5CNCC54)cc3CN12` (stereo partly drawn) [Example 52, 5-[(4R,10bS)-8-(3,4a,5,6,7,7a-hexahydro-2H-pyrrolo[3,4-b][1,4]oxazin-4-yl)-4-methyl-3,4,6,10b-tetrahydro-1H-pyrazino[2,1-a]isoindol-2-yl]quinoline-8-carbonitrile], the IC50 is less than 3.2 nM.
`C[C@@H]1CN(c2ccc(C#N)n3nccc23)C[C@@H]2c3ccc(N4CC5CNCC(C4)O5)cc3CN12` [Example 107, 4-[(4R,10bS)-4-methyl-8-(9-oxa-3,7-diazabicyclo[3.3.1]nonan-3-yl)-3,4,6,10b-tetrahydro-1H-pyrazino[2,1-a]isoindol-2-yl]pyrazolo[1,5-a]pyridine-7-carbonitrile]: the IC50 stood at 16.5 nM.
